Measurements taken from patent US20230295068A1, “NOVEL CYCLOALKENONE COMPOUND OR SALT THEREOF” (TAIHO PHARMACEUTICAL CO., LTD., priority 2020, published 2023).

Columns and labels:
[1] = Pharmacokinetics: plasma concentration after oral administration to rats; format: in vivo, rat; settings: 10 mg/kg
Method: The required amounts of compounds were weighed, and drug suspensions were prepared in 0.5% hydroxypropyl methylcellulose. The number of rats in each group was two, and each drug suspension was administered orally to each male rat (Crl: CD (SD)) using an oral sonde (the dose of the compound was 10 mg/kg). At each blood collection point (0.5, 1, 2, 4, 8, and 24 hours after administration), blood was collected from the jugular vein using a syringe and a needle (the anticoagulant was heparin sodium). The collected blood was centrifuged (13000 rpm, 2 min, 4° C.) to prepare plasma, followed by deproteinization. Thereafter, the concentration of the compound in the plasma was measured by LC/MS/MS (ICMS-8040 (Shimadzu Corporation) or API 4000 (AB Sciex), IC: 30-A and 20-A series (Shimadzu Corporation) or Waters Acquity (Waters Corporation)).

[2] = tested on: streptozotocin (STZ)-induced DM model SD rats; assay: Evaluation of drug efficacy in diabetes mellitus (DM) rat model (bladder function, residual urine volume); format: in vivo; settings: oral twice a day for 4 weeks
Method: To examine the effect of the compound in a diabetes mellitus model, bladder function was analyzed by […] based on the method of Saitoh et al. (European Journal of Pharmacology 501 (2004) 143-149).
A streptozotocin (STZ) solution obtained by dissolving STZ in a citrate buffer solution (0.1 M citric acid, pH of 4.2) to a concentration of 32.5 mg/mL was prepared, and administered intraperitoneally (65 mg/kg) to SD rats to induce DM models. The same procedure was performed on sham rats except that a citrate buffer solution was used in place of the STZ solution.
On the day after the model production and 4 weeks later, a blood sample was taken from the tail vein with the rats awake to measure the blood glucose level. […] Individuals with a blood glucose level of 300 mg/dL or more on the day after the production of the model and 4 weeks later were determined to be established DM models and used in subsequent operations. […]
A pressure transducer (DX-360, Nihon Kohden Kogyo Co., Ltd.) and an infusion pump (TE-331S, Terumo Corporation) were connected via a three-way valve to the other end of a catheter inserted into the bladder. […] The volume of urination was automatically measured using an electronic balance (GX-200, A&D Company Limited) set directly under the holding cage, and recorded continuously on a computer using a PowerLab (sampling rate: 20/sec). […]

[3] = tested on: ND3 neuronal cell line; assay: Measurement of nerve growth stimulation effect (neurite bearing assay, neurite length assay, number of cells); format: cell-based
Method in brief: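 ND3 cells were exposed 6 h to compounds in DMEM with 0.1% BSA (0.1% DMSO final), in duplicate. Neurite-bearing fraction (neurite longer than cell-body diameter) and neurite length per cell were scored by imaging and expressed relative to compound 24 maximum. Cell number was relative to DMSO wells; data with relative count <0.5 were excluded.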

[4] = Crl:CD(SD) (Sprague-Dawley), male rat (Crl: CD (SD)), plasma

AUC(0-inf) [1, 4]: 5.9 µM·h
Cmax [1, 4]: 2200 nM
improvement in area under the curve (AUC) as compared to the compound 4 ([1]; rat): ≥ 1900 times
improvement in maximum blood concentration Cmax as compared to the compound 4 ([1]; rat): ≥ 1100 times
SMILES: COCCCCCCCCCCCCCCCC1=C(C)C(=O)CCC1(C)C [Compound 24, 3-(15-methoxypentadecyl)-2,4,4-trimethylcyclohex-2-en-1-one]
drug efficacy (residual urine volume, FIG. 1) as compared to the compound 4 [2]: remarkable drug efficacy
viability at 1 µM ([3]; 1 μM, 6 hours, relative cell number, DMSO well = 1): 106%
viability at 3 µM ([3]; 3 μM, 6 hours, relative cell number, DMSO well = 1): 101%
viability at 5 µM ([3]; 5 μM, 6 hours, relative cell number, DMSO well = 1): 94%
viability at 10 µM ([3]; 10 μM, 6 hours, relative cell number, DMSO well = 1): 92%
viability at 30 µM ([3]; 30 μM, 6 hours, relative cell number, DMSO well = 1): 96%
viability at 100 µM ([3]; 100 μM, 6 hours, relative cell number, DMSO well = 1): 92%
number of relative cells ([3]; 1 to 100 μM): ≥ 0.5
